From patent publication US20220264913A1, “MULTIFUNCTIONAL EXTRACTS OF SUGARCANE STRAW OR BAGASSE AND USES THEREOF” (UNIVERSIDADE CATÓLICA PORTUGUESA - UCP, priority 2019, published 2022)

Experiments:
Format in all cases: cell-based
Settings in all cases: extracts 50% ethanol, ND = inhibition not detected
[1] = tested on: E. coli; assay: MIC/MBC determination, E. coli
Procedure: (§1) The antimicrobial activity of the extracts was evaluated by measuring the minimum inhibitory concentration (MIC) and the minimum bactericidal concentration (MBC) of the extracts using the methods of the clinical and laboratory standards institute for aerobic (M07-A9) and anaerobic bacteria (M11-A8). From a previously filtered 3% stock solution a series of extract dilutions were prepared (2%, 1.5%, 1%, 0.75%, 0.5%, 0.25%, 0.125%, and 0.0625% (w/v)). A commonly used preservative, 2-phenoxyethanol was tested under the same conditions as a positive control.
(§2) MHB growth media was used for aerobic microorganisms and Wilkins Chalgren Broth (WCB) was used for anaerobic microorganisms. The microorganisms were inoculated at 2% (v/v) from an inoculum with 0.5 McFarland standard (ca. 10^8 CFU/mL) and then adjusted in order to obtain a final inoculum of 10^5 CFU/mL in the testing solutions. […] The OD of each well (experimental and control) was measured each hour at 660 nm. […] Afterwards, the concentrations for which no growth was detected were plated in MHA and Wilkins Chalgren Agar (WCA) accordingly, in order to verify the MBC. MBC and MIC were determined by the analysis of maximum absorbance registered, delay of the exponential phase entry, and the calculation of the specific growth rate. […]

[2] = tested on: MSSA; assay: MIC/MBC determination, MSSA
Procedure: as §1, §2

[3] = tested on: C. albicans; assay: MIC/MBC determination, C. albicans
Procedure: as §1, §2

[4] = tested on: P. aeruginosa; assay: MIC/MBC determination, P. aeruginosa
Procedure: as §1, §2

In the case of `OCCOc1ccccc1` [Phenoxyethanol, 2-phenoxyethanol], the MBC [1] is reported as 3%, the MBC [2] is reported as 0.3% and the MBC [3] is reported as 3%. The MBC [4] was 0.3%.
